# ChEMBL document CHEMBL1221328, “Relationships between structures of hydroxyflavones and their antioxidative effects” (Bioorg Med Chem Lett, 2010)
# Assay: Antioxidant activity assessed as […] radical scavenging activity
# Assay type: functional
# Set-up: concentration or dose not given beside the values
row,Structure (SMILES),Activity [%]
1,O=c1cc(-c2ccccc2)oc2c(O)c(O)cc(O)c12,58.8
2,O=c1c(O)c(-c2cc(O)c(O)c(O)c2)oc2cc(O)cc(O)c12,79.5
3,O=c1cc(-c2ccc(O)c(O)c2)oc2c(O)c(O)ccc12,87.4
4,O=c1c(O)c(-c2ccc(O)c(O)c2)oc2cc(O)ccc12,85.2
5,O=c1c(O)c(-c2ccccc2O)oc2ccc(O)cc12,86.8
6,O=c1cc(-c2ccc(O)cc2)oc2cc(O)c(O)c(O)c12,69.9
7,O=c1c(O)c(-c2ccc(O)c(O)c2)oc2ccc(O)cc12,86.7
8,O=c1c(O)c(-c2ccccc2)oc2cc(O)cc(O)c12,52.5
9,O=c1cc(-c2cc(O)c(O)c(O)c2)oc2cc(O)cc(O)c12,88.1
10,O=c1cc(-c2ccc(O)c(O)c2)oc2cc(O)c(O)cc12,86.4
11,O=c1c(O)c(-c2ccc(O)cc2)oc2cc(O)cc(O)c12,77.2
12,O=c1c(O)c(-c2ccc(O)c(O)c2)oc2c(O)c(O)cc(O)c12,85.4
13,O=c1cc(-c2ccc(O)c(O)c2)oc2ccc(O)cc12,83.9
14,O=c1cc(-c2cc(O)cc(O)c2)oc2ccccc12,61.8
15,O=c1c(O)c(-c2cc(O)c(O)cc2O)oc2ccc(O)cc12,85.6
16,O=c1cc(-c2cc(O)c(O)c(O)c2)oc2cc(O)ccc12,88.8
17,O=c1c(O)c(-c2ccc(O)cc2O)oc2cc(O)cc(O)c12,81.5
18,O=c1c(O)c(-c2cccc(O)c2O)oc2ccc(O)cc12,86.6
19,O=c1cc(-c2cccc(O)c2O)oc2ccc(O)cc12,87.1
20,O=c1cc(-c2ccccc2O)oc2c(O)c(O)ccc12,79.9
21,O=c1c(O)c(-c2ccc(O)c(O)c2)oc2cc(O)cc(O)c12,87.8
22,O=c1cc(-c2ccc(O)c(O)c2)oc2cc(O)ccc12,84.9
23,O=c1c(O)c(-c2ccc(O)cc2O)oc2ccc(O)cc12,86.3
24,O=c1c(O)c(-c2ccccc2O)oc2cc(O)cc(O)c12,86.5
25,O=c1c(O)c(-c2ccccc2)oc2cccc(O)c12,58.3
26,O=c1cc(-c2cccc(O)c2)oc2c(O)c(O)ccc12,87.1
27,O=c1c(O)c(-c2ccccc2O)oc2c(O)c(O)ccc12,83.1
28,O=c1c(O)c(-c2ccc(O)c(O)c2)oc2ccccc12,85.7
29,O=c1c(O)c(-c2cc(O)c(O)c(O)c2)oc2cc(O)ccc12,79.9
30,O=c1c(O)c(-c2ccccc2O)oc2ccccc12,69.3
